This is an account of results in ChEMBL document CHEMBL1125302, “Prodrugs of nitroxyl as inhibitors of aldehyde dehydrogenase” (J Med Chem, 1992).

Assay [1] is described as follows: Inhibitory activity against porcine […] dehydrogenase; Active. Conditions: Sus scrofa.
Assay [2] is described as follows: In vitro inhibitory activity against yeast […] dehydrogenase; Active. Conditions: Saccharomyces cerevisiae.

The source made the active and inactive calls. The calls are words filed in the database; no cut-off is given here.

For the molecule `N#CN(OC(=O)c1ccccc1)C(=O)c1ccccc1`, the result in assay [1] was Active.
Turning to `CC(C)(C)OC(=O)N(OC(=O)c1ccccc1)S(=O)(=O)c1ccccc1`, the outcome in assay [1] and in assay [2] was Active.
Turning to `CC(=O)ON(C(=O)OC(C)(C)C)S(=O)(=O)c1ccccc1`, the result in assay [1] and in assay [2] was Active.
